Target: PD-1/PD-L1 (Homo sapiens, UniProt Q9NZQ7)
Test: TR-FRET PD-1/PD-L1 binding inhibition at the molecular level (free proteins)
Conditions: Tag1-PD-L1 and Tag2-PD-1 proteins, twelve concentrations from 200 nM, 2 hours at room temperature, read-out: FRET assay (IC50)
Summary of the method: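 HTRF read-out at 665/620 nm after 2 h at room temperature. Detection used anti-Tag1 Eu cryptate plus anti-Tag2 XL665 antibodies. Tagged PD-L1 and PD-1 proteins were pre-mixed with compound across twelve […] 1:2 dilutions starting at 200 nM.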

Chain of PD-1/PD-L1 (Q9NZQ7 19-238 limits assumed): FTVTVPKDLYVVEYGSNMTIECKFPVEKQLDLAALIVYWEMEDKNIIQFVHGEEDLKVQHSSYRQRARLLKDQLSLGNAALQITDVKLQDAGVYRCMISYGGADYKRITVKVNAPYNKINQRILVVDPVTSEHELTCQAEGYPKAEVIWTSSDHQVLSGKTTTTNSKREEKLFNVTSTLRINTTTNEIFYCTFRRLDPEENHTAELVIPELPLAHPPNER

Row | IC50 [nM] | Compound
1 | < 10 | Cc1c(NC(=O)c2ccc(CN3CC[C@@H](O)C3)cn2)cccc1-c1cccc(NC(=O)c2cc3n(n2)CCCC3N2CC[C@@H](C(=O)O)C2)c1C (stereo partly drawn) [Compound 96, (3R)-1-(2-((3'-(5-(((R)-3-hydroxypyrrolidin-1-yl)methyl)picolinamido)-2,2'-dimethyl-[1,1'-biphenyl]-3-yl)carbamoyl)-4,5,6,7-tetrahydropyrazolo[1,5-a]pyridin-4-yl)pyrrolidine-3-carboxylic acid]
2 | < 10 | O=C(Nc1cccc(-c2cccc(Nc3nccc4cc(CN5CC[C@H](O)C5)cnc34)c2Cl)c1Cl)c1cc2n(n1)CCCC2N1CCC(O)CC1 (stereo partly drawn) [Compound 97, N-(2,2'-dichloro-3'-((3-(((S)-3-hydroxypyrrolidin-1-yl)methyl)-1,7-naphthyridin-8-yl)amino)-[1,1'-biphenyl]-3-yl)-4-(4-hydroxypiperidin-1-yl)-4,5,6,7-tetrahydropyrazolo[1,5-a]pyridine-2-carboxamide]
3 | < 10 | Cc1c(NC(=O)c2ccc(CN3CC[C@@H](O)C3)cn2)cccc1-c1cccc(NC(=O)c2cc3n(n2)CCCC3N2CCC(C(=O)O)CC2)c1C (stereo partly drawn) [Compound 98, 1-(2-((3'-(5-(((R)-3-hydroxypyrrolidin-1-yl)methyl)picolinamido)-2,2'-dimethyl-[1,1'-biphenyl]-3-yl)carbamoyl)-4,5,6,7-tetrahydropyrazolo[1,5-a]pyridin-4-yl)piperidine-4-carboxylic acid]
4 | < 10 | Cc1c(NC(=O)c2ccc(CN3CC[C@@H](O)C3)cn2)cccc1-c1cccc(NC(=O)c2cc3n(n2)CCCC3NC(C)(C)C(=O)O)c1C (stereo partly drawn) [Compound 99, 2-((2-((3'-(5-(((R)-3-hydroxypyrrolidin-1-yl)methyl)picolinamido)-2,2'-dimethyl-[1,1'-biphenyl]-3-yl)carbamoyl)-4,5,6,7-tetrahydropyrazolo[1,5-a]pyridin-4-yl)amino)-2-methylpropanoic acid]
5 | < 10 | O=C(Nc1cccc(-c2cccc(NC(=O)c3cc4n(n3)CCCC4NCCO)c2Cl)c1Cl)c1ccc(CN2CC[C@@H](O)C2)cn1 (stereo partly drawn) [Compound 100, N-(2,2'-dichloro-3'-(5-(((R)-3-hydroxypyrrolidin-1-yl)methyl)picolinamido)-[1,1'-biphenyl]-3-yl)-4-((2-hydroxyethyl)amino)-4,5,6,7-tetrahydropyrazolo[1,5-a]pyridine-2-carboxamide]
6 | 10 to 100 | O=C(Nc1cccc(-c2cccc(NC(=O)c3cc4n(n3)CCCC4N3CC[C@@H](O)C3)c2Cl)c1Cl)c1ccc(CN2CC[C@@H](O)C2)cn1 (stereo partly drawn) [Compound 101, N-(2,2'-dichloro-3'-(5-(((R)-3-hydroxypyrrolidin-1-yl)methyl)picolinamido)-[1,1'-biphenyl]-3-yl)-4-((R)-3-hydroxypyrrolidin-1-yl)-4,5,6,7-tetrahydropyrazolo[1,5-a]pyridine-2-carboxamide]
7 | < 10 | CC(=O)NCCNC1CCCn2nc(C(=O)Nc3cccc(-c4cccc(NC(=O)c5ccc(CN6CC[C@@H](O)C6)cn5)c4Cl)c3Cl)cc21 (stereo partly drawn) [Compound 103, 4-((2-acetamidoethyl)amino)-N-(2,2'-dichloro-3'-(5-(((R)-3-hydroxypyrrolidin-1-yl)methyl)picolinamido)-[1,1'-biphenyl]-3-yl)-4,5,6,7-tetrahydropyrazolo[1,5-a]pyridine-2-carboxamide]
8 | < 10 | O=C(O)CNC1CCCn2nc(C(=O)Nc3cccc(-c4cccc(NC(=O)c5ccc(CN6CC[C@@H](O)C6)cn5)c4Cl)c3Cl)cc21 (stereo partly drawn) [Compound 104, 2-((2-((2,2'-dichloro-3'-(5-(((R)-3-hydroxypyrrolidin-1-yl)methyl)picolinamido)-[1,1'-biphenyl]-3-yl)carbamoyl)-4,5,6,7-tetrahydropyrazolo[1,5-a]pyridin-4-yl)amino)acetic acid]
9 | < 10 | O=C(Nc1cccc(-c2cccc(NC(=O)c3cc4n(n3)CCCC4N3CC[C@@H](C(=O)O)C3)c2Cl)c1Cl)c1ccc(CN2CC[C@@H](O)C2)cn1 (stereo partly drawn) [Compound 105, (3R)-1-(2-((2,2'-dichloro-3'-(5-(((R)-3-hydroxypyrrolidin-1-yl)methyl)picolinamido)-[1,1'-biphenyl]-3-yl)carbamoyl)-4,5,6,7-tetrahydropyrazolo[1,5-a]pyridin-4-yl)pyrrolidine-3-carboxylic acid]
10 | < 10 | O=C(Nc1cccc(-c2cccc(NC(=O)c3cc4n(n3)CCCC4N3CCC(O)CC3)c2Cl)c1Cl)c1ccc(CN2CC[C@@H](O)C2)cn1 (stereo partly drawn) [Compound 106, N-(2,2'-dichloro-3'-(5-(((R)-3-hydroxypyrrolidin-1-yl)methyl)picolinamido)-[1,1'-biphenyl]-3-yl)-4-(4-hydroxypiperidin-1-yl)-4,5,6,7-tetrahydropyrazolo[1,5-a]pyridine-2-carboxamide]
11 | 10 to 100 | O=C(Nc1cccc(-c2cccc(NC(=O)c3cc4n(n3)CCCC4N3CCC(C(=O)O)CC3)c2Cl)c1Cl)c1ccc(CN2CC[C@@H](O)C2)cn1 (stereo partly drawn) [Compound 107, 1-(2-((2,2'-dichloro-3'-(5-(((R)-3-hydroxypyrrolidin-1-yl)methyl)picolinamido)-[1,1'-biphenyl]-3-yl)carbamoyl)-4,5,6,7-tetrahydropyrazolo[1,5-a]pyridin-4-yl)piperidine-4-carboxylic acid]

Further lines, the molecule ahead of its results:

Row | Compound | IC50 [nM]
12 | O=C(Nc1cccc(-c2cccc(NC(=O)c3cc4n(n3)CCCC4N3CC[C@@H](O)C3)c2Cl)c1Cl)c1ccc(CNCCO)cn1 (stereo partly drawn) [Compound 85, N-(2,2'-dichloro-3'-(5-(((2-hydroxyethyl)amino)methyl)picolinamido)-[1,1'-biphenyl]-3-yl)-4-((R)-3-hydroxypyrrolidin-1-yl)-4,5,6,7-tetrahydropyrazolo[1,5-a]pyridine-2-carboxamide] | < 10
13 | O=C(Nc1cccc(-c2cccc(NC(=O)c3cc4n(n3)CCCC4N3CC[C@@H](C(=O)O)C3)c2Cl)c1Cl)c1ccc(CNCCO)cn1 (stereo partly drawn) [Compound 86, (3R)-1-(2-((2,2'-dichloro-3'-(5-(((2-hydroxyethyl)amino)methyl)picolinamido)-[1,1'-biphenyl]-3-yl)carbamoyl)-4,5,6,7-tetrahydropyrazolo[1,5-a]pyridin-4-yl)pyrrolidine-3-carboxylic acid] | < 10
14 | O=C(Nc1cccc(-c2cccc(NC(=O)c3cc4n(n3)CCCC4N3CCC(O)CC3)c2Cl)c1Cl)c1ccc(CNCCO)cn1 (stereo not shown) [Compound 87, N-(2,2'-dichloro-3'-(5-(((2-hydroxyethyl)amino)methyl)picolinamido)-[1,1'-biphenyl]-3-yl)-4-(4-hydroxypiperidin-1-yl)-4,5,6,7-tetrahydropyrazolo[1,5-a]pyridine-2-carboxamide] | 10 to 100
15 | O=C(Nc1cccc(-c2cccc(NC(=O)c3cc4n(n3)CCCC4N3CCC(C(=O)O)CC3)c2Cl)c1Cl)c1ccc(CNCCO)cn1 (stereo not shown) [Compound 88, 1-(2-((2,2'-dichloro-3'-(5-(((2-hydroxyethyl)amino)methyl)picolinamido)-[1,1'-biphenyl]-3-yl)carbamoyl)-4,5,6,7-tetrahydropyrazolo[1,5-a]pyridin-4-yl)piperidine-4-carboxylic acid] | < 10
16 | O=C(O)CNC1CCCn2nc(C(=O)Nc3cccc(-c4cccc(NC(=O)c5ccc(CNCCO)cn5)c4Cl)c3Cl)cc21 (stereo not shown) [Compound 89, 2-((2-((2,2'-dichloro-3'-(5-(((2-hydroxyethyl)amino)methyl)picolinamido)-[1,1'-biphenyl]-3-yl)carbamoyl)-4,5,6,7-tetrahydropyrazolo[1,5-a]pyridin-4-yl)amino)acetic acid] | < 10
17 | CC(C)(NC1CCCn2nc(C(=O)Nc3cccc(-c4cccc(NC(=O)c5ccc(CNCCO)cn5)c4Cl)c3Cl)cc21)C(=O)O (stereo not shown) [Compound 90, 2-((2-((2,2'-dichloro-3'-(5-(((2-hydroxyethyl)amino)methyl)picolinamido)-[1,1'-biphenyl]-3-yl)carbamoyl)-4,5,6,7-tetrahydropyrazolo[1,5-a]pyridin-4-yl)amino)-2-methylpropanoic acid] | < 10
18 | Cc1c(NC(=O)c2ccc(CN3CC[C@@H](O)C3)cn2)cccc1-c1cccc(NC(=O)c2cc3n(n2)CCCC3NCCO)c1C (stereo partly drawn) [Compound 91, 4-((2-hydroxyethyl)amino)-N-(3'-(5-(((R)-3-hydroxypyrrolidin-1-yl)methyl)picolinamido)-2,2'-dimethyl-[1,1'-biphenyl]-3-yl)-4,5,6,7-tetrahydropyrazolo[1,5-a]pyridine-2-carboxamide] | < 10
19 | Cc1c(NC(=O)c2ccc(CN3CC[C@@H](O)C3)cn2)cccc1-c1cccc(NC(=O)c2cc3n(n2)CCCC3N2CC[C@@H](O)C2)c1C (stereo partly drawn) [Compound 92, 4-((R)-3-hydroxypyrrolidin-1-yl)-N-(3'-(5-(((R)-3-hydroxypyrrolidin-1-yl)methyl)picolinamido)-2,2'-dimethyl-[1,1'-biphenyl]-3-yl)-4,5,6,7-tetrahydropyrazolo[1,5-a]pyridine-2-carboxamide] | < 10
20 | Cc1c(NC(=O)c2ccc(CN3CC[C@@H](O)C3)cn2)cccc1-c1cccc(NC(=O)c2cc3n(n2)CCCC3NC[C@@H]2CCC(=O)N2)c1C (stereo partly drawn) [Compound 93, N-(3'-(5-(((R)-3-hydroxypyrrolidin-1-yl)methyl)picolinamido)-2,2'-dimethyl-[1,1'-biphenyl]-3-yl)-4-((((S)-5-oxopyrrolidin-2-yl)methyl)amino)-4,5,6,7-tetrahydropyrazolo[1,5-a]pyridine-2-carboxamide] | < 10
21 | CC(=O)NCCNC1CCCn2nc(C(=O)Nc3cccc(-c4cccc(NC(=O)c5ccc(CN6CC[C@@H](O)C6)cn5)c4C)c3C)cc21 (stereo partly drawn) [Compound 94, 4-((2-acetamidoethyl)amino)-N-(3'-(5-(((R)-3-hydroxypyrrolidin-1-yl)methyl)picolinamido)-2,2'-dimethyl-[1,1'-biphenyl]-3-yl)-4,5,6,7-tetrahydropyrazolo[1,5-a]pyridine-2-carboxamide] | < 10
22 | Cc1c(NC(=O)c2ccc(CN3CC[C@@H](O)C3)cn2)cccc1-c1cccc(NC(=O)c2cc3n(n2)CCCC3NCC(=O)O)c1C (stereo partly drawn) [Compound 95, 2-((2-((3'-(5-(((R)-3-hydroxypyrrolidin-1-yl)methyl)picolinamido)-2,2'-dimethyl-[1,1'-biphenyl]-3-yl)carbamoyl)-4,5,6,7-tetrahydropyrazolo[1,5-a]pyridin-4-yl)amino)acetic acid] | < 10
